Reference: article PMC6858350, “A common mechanism allows selective targeting of GluN2B subunit-containing N-methyl-D-aspartate receptors” (Communications Biology, 2019)
Where two headings read alike, the source gives them in different places.

Tests used:
GluN1-1a WT/GluN2B Q110A [1] = biological target: T1, GluN1-1a WT/GluN2B Q110A (Rattus norvegicus, UniProt P35439+Q00960, Q110A)
GluN1-1a L135N/GluN2B WT [2] = biological target: T2, GluN1-1a L135N/GluN2B WT (Rattus norvegicus, UniProt P35439+Q00960, L135N)
GluN1-1a F113S/GluN2B WT [3] = biological target: T3, GluN1-1a F113S/GluN2B WT (Rattus norvegicus, UniProt P35439+Q00960, F113S); assay: cell-based
GluN1-1a WT/GluN2B I111A [4] = biological target: T4, GluN1-1a WT/GluN2B I111A (Rattus norvegicus, UniProt P35439+Q00960, I111A)
GluN1-1a/GluN2C NMDAR [5] = biological target: T5, GluN1-1a/GluN2C NMDAR (Rattus norvegicus, UniProt P35439+Q00961); conditions: from inhibition at 10 µM (GluN2C, GluN2D) versus IC50 at GluN2B
GluN1-1a/GluN2D NMDAR = GluN1-1a/GluN2D NMDAR (Rattus norvegicus, UniProt P35439+Q62645); assay: cell-based; conditions: read-out: ion current inhibition % ± SEM, GluN2D
GluN1-1a WT/GluN2B I111A [6] = biological target: T4, GluN1-1a WT/GluN2B I111A; assay: cell-based
GluN1-1a/GluN2C NMDAR [7] = biological target: T5, GluN1-1a/GluN2C NMDAR; assay: cell-based; conditions: read-out: ion current inhibition % ± SEM, GluN2C
GluN1-1a WT/GluN2B F176A [8] = biological target: T6, GluN1-1a WT/GluN2B F176A (Rattus norvegicus, UniProt P35439+Q00960, F176A)
GluN1-1a/GluN2A NMDAR = GluN1-1a/GluN2A NMDAR (Rattus norvegicus, UniProt P35439+Q00959); assay: cell-based; conditions: read-out: ion current inhibition % ± SEM, GluN2A
GluN1-1a Y109S/GluN2B WT [9] = biological target: T7, GluN1-1a Y109S/GluN2B WT (Rattus norvegicus, UniProt P35439+Q00960, Y109S)
[10] = biological target: GluN1-1a/GluN2B NMDAR (wildtype) (Rattus norvegicus, UniProt P35439+Q00960); type: cell-based; conditions: for p (slope of the dose-response curve) / A2 ± SE (maximum inhibition from dose-response curve): −70 mV; for A2 ± SE (maximum inhibition from dose-response curve): flexible A2
GluN1-1a S132A/GluN2B WT [11] = biological target: T8, GluN1-1a S132A/GluN2B WT (Rattus norvegicus, UniProt P35439+Q00960, S132A)
GluN1-1a WT/GluN2B F176A [12] = biological target: T6, GluN1-1a WT/GluN2B F176A; assay: cell-based
GluN1-1a WT/GluN2B E236A [13] = biological target: T9, GluN1-1a WT/GluN2B E236A (Rattus norvegicus, UniProt P35439+Q00960, E236A)
GluN1-1a WT/GluN2B F114A [14] = biological target: T10, GluN1-1a WT/GluN2B F114A (Rattus norvegicus, UniProt P35439+Q00960, F114A)
GluN1-1a WT/GluN2B Q110A [15] = biological target: T1, GluN1-1a WT/GluN2B Q110A; assay: cell-based
GluN1-1a Y109S/GluN2B WT [16] = biological target: T7, GluN1-1a Y109S/GluN2B WT; assay: cell-based
GluN1-1a F113S/GluN2B WT [17] = biological target: T3, GluN1-1a F113S/GluN2B WT
GluN1-1a S132A/GluN2B WT [18] = biological target: T8, GluN1-1a S132A/GluN2B WT; assay: cell-based
GluN1-1a WT/GluN2B F176Y [19] = biological target: T11, GluN1-1a WT/GluN2B F176Y (Rattus norvegicus, UniProt P35439+Q00960, F176Y)
GluN1-1a L135N/GluN2B WT [20] = biological target: T2, GluN1-1a L135N/GluN2B WT; assay: cell-based
GluN1-1a WT/GluN2B F114A [21] = biological target: T10, GluN1-1a WT/GluN2B F114A; assay: cell-based
GluN1-1a WT/GluN2B E236A [22] = biological target: T9, GluN1-1a WT/GluN2B E236A; assay: cell-based
GluN1-1a WT/GluN2B F176Y [23] = biological target: T11, GluN1-1a WT/GluN2B F176Y; assay: cell-based
[24] = system: more than 100 relevant receptors, transporters and enzymes including adrenergic (α1), dopaminergic (D1, D2), opioid (κ, μ, δ) and serotonergic receptors …; parameters: method as in earlier work; conditions: concentration of 1 - 3 µM; ref 2 (Tewes et al., Bioorg. Med. Chem. 2010); cited from earlier work

T9 sequence (Q00960 27-1482 E236A, other chains not shown): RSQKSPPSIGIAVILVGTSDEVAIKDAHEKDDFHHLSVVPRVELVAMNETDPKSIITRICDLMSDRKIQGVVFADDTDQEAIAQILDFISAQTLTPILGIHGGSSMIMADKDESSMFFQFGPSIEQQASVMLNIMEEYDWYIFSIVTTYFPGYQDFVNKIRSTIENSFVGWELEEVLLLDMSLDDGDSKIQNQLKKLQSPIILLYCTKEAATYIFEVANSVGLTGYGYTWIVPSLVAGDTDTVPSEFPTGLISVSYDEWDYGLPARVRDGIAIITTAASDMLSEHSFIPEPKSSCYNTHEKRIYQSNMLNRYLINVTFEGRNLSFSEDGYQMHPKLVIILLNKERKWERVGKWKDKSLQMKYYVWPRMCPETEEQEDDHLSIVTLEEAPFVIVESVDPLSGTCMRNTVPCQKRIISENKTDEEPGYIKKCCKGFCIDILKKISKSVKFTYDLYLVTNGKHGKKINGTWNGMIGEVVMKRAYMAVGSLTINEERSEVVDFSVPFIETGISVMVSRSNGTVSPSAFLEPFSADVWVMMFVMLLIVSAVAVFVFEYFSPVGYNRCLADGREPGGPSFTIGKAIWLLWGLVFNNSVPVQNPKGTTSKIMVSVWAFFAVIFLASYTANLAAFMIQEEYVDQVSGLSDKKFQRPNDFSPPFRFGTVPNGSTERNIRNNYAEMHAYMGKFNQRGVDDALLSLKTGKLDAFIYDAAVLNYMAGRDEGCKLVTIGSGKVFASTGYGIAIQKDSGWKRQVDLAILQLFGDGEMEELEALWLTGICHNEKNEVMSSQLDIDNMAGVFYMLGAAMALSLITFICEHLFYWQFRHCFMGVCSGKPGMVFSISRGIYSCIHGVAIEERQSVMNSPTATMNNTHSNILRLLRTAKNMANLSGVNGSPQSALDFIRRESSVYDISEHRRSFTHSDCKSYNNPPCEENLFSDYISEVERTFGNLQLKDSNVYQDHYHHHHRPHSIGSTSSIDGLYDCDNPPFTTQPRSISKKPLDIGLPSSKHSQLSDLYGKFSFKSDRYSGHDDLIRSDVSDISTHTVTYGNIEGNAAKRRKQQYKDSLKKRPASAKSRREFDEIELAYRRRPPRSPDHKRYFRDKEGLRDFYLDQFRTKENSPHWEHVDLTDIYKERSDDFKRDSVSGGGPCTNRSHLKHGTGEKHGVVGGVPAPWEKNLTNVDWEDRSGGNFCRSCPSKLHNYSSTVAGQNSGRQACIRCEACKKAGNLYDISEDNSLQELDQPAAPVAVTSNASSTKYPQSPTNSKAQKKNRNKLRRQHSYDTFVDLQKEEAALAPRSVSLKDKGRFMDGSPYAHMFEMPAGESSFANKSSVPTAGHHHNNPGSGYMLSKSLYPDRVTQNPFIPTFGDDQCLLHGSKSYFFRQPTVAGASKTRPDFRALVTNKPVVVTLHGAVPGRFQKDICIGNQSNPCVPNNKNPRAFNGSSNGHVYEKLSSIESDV
T4 sequence (Q00960 27-1482 I111A, other chains not shown): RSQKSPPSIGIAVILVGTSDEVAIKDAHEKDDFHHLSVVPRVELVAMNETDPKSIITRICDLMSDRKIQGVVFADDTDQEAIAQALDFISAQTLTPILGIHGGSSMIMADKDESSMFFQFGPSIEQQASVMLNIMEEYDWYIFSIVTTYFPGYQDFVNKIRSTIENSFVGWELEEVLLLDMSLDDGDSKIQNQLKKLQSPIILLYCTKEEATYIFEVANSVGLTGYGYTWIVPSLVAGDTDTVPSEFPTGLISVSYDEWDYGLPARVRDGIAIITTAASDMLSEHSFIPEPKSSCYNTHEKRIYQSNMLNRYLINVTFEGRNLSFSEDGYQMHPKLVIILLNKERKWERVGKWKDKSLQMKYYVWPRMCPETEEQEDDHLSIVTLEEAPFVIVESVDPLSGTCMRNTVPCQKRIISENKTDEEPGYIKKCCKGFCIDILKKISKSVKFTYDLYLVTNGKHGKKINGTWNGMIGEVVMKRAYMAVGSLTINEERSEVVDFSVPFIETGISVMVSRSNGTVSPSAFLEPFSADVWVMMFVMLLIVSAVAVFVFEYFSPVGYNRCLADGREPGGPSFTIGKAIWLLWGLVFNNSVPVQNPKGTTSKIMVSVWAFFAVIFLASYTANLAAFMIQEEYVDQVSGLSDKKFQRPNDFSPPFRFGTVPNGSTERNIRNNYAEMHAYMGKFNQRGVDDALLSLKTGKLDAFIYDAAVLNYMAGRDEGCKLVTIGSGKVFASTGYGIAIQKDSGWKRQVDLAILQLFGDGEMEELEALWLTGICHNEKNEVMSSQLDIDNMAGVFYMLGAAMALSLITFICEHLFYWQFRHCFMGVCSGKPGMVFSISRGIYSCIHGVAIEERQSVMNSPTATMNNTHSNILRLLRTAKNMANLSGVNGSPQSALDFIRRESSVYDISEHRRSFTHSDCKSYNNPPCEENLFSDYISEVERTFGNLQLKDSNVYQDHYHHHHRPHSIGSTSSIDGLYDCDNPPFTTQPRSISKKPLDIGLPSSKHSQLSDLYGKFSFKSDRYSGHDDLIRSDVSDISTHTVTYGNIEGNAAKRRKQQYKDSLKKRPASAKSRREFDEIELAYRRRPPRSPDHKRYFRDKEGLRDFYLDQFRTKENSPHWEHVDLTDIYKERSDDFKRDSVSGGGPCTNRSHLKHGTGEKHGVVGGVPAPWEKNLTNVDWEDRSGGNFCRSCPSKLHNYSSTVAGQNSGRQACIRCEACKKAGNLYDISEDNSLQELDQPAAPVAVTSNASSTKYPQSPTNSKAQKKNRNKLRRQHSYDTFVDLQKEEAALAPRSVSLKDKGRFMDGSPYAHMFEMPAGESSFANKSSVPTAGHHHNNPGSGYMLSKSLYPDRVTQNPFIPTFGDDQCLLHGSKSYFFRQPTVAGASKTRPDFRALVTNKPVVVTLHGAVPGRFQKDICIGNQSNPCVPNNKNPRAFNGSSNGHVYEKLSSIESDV
T8 sequence (Q00960 27-1482, other chains not shown): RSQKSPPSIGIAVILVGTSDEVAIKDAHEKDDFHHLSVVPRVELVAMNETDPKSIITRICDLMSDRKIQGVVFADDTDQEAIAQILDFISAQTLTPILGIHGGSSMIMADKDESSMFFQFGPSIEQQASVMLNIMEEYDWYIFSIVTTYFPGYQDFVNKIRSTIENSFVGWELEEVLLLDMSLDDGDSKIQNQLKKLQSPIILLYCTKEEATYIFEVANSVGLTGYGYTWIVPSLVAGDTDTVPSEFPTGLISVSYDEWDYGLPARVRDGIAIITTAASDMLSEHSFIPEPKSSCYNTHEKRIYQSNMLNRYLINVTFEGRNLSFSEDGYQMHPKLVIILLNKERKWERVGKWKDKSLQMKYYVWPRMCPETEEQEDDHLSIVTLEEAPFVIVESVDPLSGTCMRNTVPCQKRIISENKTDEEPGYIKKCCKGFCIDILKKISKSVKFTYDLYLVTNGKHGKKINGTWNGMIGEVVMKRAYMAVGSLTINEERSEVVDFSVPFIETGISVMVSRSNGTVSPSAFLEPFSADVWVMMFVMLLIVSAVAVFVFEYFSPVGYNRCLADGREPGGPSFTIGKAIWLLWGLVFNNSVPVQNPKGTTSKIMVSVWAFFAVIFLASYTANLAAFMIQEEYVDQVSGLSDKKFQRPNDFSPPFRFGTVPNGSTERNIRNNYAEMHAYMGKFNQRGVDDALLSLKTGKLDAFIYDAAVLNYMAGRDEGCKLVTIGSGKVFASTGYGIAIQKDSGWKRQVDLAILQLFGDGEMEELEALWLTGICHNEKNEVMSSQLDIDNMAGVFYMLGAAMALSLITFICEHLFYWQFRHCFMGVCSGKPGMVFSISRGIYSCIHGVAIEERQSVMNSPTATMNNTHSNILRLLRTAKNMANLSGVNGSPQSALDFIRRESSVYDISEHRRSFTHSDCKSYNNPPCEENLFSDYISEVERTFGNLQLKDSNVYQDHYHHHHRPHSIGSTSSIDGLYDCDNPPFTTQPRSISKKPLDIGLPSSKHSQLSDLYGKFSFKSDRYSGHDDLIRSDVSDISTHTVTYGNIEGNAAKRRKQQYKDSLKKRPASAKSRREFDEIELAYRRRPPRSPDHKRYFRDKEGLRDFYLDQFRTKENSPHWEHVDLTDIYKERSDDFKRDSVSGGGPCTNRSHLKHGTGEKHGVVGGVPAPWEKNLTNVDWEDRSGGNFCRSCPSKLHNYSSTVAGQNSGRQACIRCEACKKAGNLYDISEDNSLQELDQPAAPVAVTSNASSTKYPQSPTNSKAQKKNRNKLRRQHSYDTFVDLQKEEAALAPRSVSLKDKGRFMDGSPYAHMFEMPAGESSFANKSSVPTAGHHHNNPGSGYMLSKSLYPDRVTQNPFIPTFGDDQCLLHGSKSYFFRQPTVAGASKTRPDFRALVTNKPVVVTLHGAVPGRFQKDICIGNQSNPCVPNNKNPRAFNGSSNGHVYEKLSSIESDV

C[C@@H]1[C@H](O)c2ccc(O)cc2CCN1CCCCc1ccccc1 [compound 2]
p (slope) (GluN1-1a WT/GluN2B Q110A [1]; GluN2B Q110A): 1.79 | A2 ± SE (GluN1-1a WT/GluN2B Q110A [1]; GluN2B Q110A, flexible A2): 95 ± 1% | IC50 shift factor (GluN1-1a WT/GluN2B Q110A [1]; mutant IC50 / wildtype IC50, GluN2B Q110A): 1.4 | p (slope) (GluN1-1a L135N/GluN2B WT [2]; GluN1-1a L135N): 0.72 | A2 ± SE (GluN1-1a L135N/GluN2B WT [2]; GluN1-1a L135N, flexible A2): 100 ± 5% | IC50 shift factor (GluN1-1a L135N/GluN2B WT [2]; mutant IC50 / wildtype IC50, GluN1-1a L135N): 9.2 | IC50 (GluN1-1a F113S/GluN2B WT [3]): 76 ± 17 nM | p (slope) (GluN1-1a WT/GluN2B I111A [4]; GluN2B I111A): 0.86 | A2 ± SE (GluN1-1a WT/GluN2B I111A [4]; GluN2B I111A, flexible A2): 96 ± 4% | IC50 shift factor (GluN1-1a WT/GluN2B I111A [4]; mutant IC50 / wildtype IC50, GluN2B I111A): 4.2 | lower activity at GluN2C and GluN2D than at GluN2B subunit-containing NMDARs (GluN1-1a/GluN2C NMDAR [5]): at least 100 fold | inhibition at 10 µM (GluN1-1a/GluN2D NMDAR): 55 ± 2% | IC50 (GluN1-1a WT/GluN2B I111A [6]): 380 ± 82 nM | inhibition at 10 µM (GluN1-1a/GluN2C NMDAR [7]): 56 ± 2% | p (slope) (GluN1-1a WT/GluN2B F176A [8]; GluN2B F176A): 0.94 | A2, fixed-to-wildtype (*) (GluN1-1a WT/GluN2B F176A [8]; GluN2B F176A, maximum inhibition fixed to wildtype value): 97% | IC50 shift factor (GluN1-1a WT/GluN2B F176A [8]; mutant IC50 / wildtype IC50, GluN2B F176A): 19.9 | inhibition at 10 µM (GluN1-1a/GluN2A NMDAR): 15 ± 5% | p (slope) (GluN1-1a Y109S/GluN2B WT [9]; GluN1-1a Y109S): 0.86 | A2 ± SE (GluN1-1a Y109S/GluN2B WT [9]; GluN1-1a Y109S, flexible A2): 96 ± 2% | IC50 shift factor (GluN1-1a Y109S/GluN2B WT [9]; mutant IC50 / wildtype IC50, GluN1-1a Y109S): 1.5 | IC50 [10]: 91 ± 7 nM | p (slope of the dose-response curve) ([10]; TEVC, wildtype): 1.08 | A2 ± SE (maximum inhibition from dose-response curve) ([10]; TEVC, wildtype): 97 ± 2% | inhibition at 10 µM ([10]; read-out: ion current inhibition % ± SEM, GluN2B): 95 ± 1% | p (slope) (GluN1-1a S132A/GluN2B WT [11]; GluN1-1a S132A): 0.78 | A2 ± SE (GluN1-1a S132A/GluN2B WT [11]; GluN1-1a S132A, flexible A2): 100 ± 3% | IC50 shift factor (GluN1-1a S132A/GluN2B WT [11]; mutant IC50 / wildtype IC50, GluN1-1a S132A): 4.3 | IC50 (GluN1-1a WT/GluN2B F176A [12]): 1810 ± 127 nM | p (slope) (GluN1-1a WT/GluN2B E236A [13]; GluN2B E236A): 1.09 | A2 ± SE (GluN1-1a WT/GluN2B E236A [13]; GluN2B E236A, flexible A2): 95 ± 3% | IC50 shift factor (GluN1-1a WT/GluN2B E236A [13]; mutant IC50 / wildtype IC50, GluN2B E236A): 1.2 | p (slope) (GluN1-1a WT/GluN2B F114A [14]; GluN2B F114A): 1.03 | A2, fixed-to-wildtype (*) (GluN1-1a WT/GluN2B F114A [14]; GluN2B F114A, maximum inhibition fixed to wildtype value): 97% | IC50 shift factor (GluN1-1a WT/GluN2B F114A [14]; mutant IC50 / wildtype IC50, GluN2B F114A): 7.3 | IC50 (GluN1-1a WT/GluN2B Q110A [15]): 130 ± 6 nM | IC50 (GluN1-1a Y109S/GluN2B WT [16]): 140 ± 19 nM | p (slope) (GluN1-1a F113S/GluN2B WT [17]; GluN1-1a F113S): 0.57 | A2 ± SE (GluN1-1a F113S/GluN2B WT [17]; GluN1-1a F113S, flexible A2): 100 ± 3% | IC50 shift factor (GluN1-1a F113S/GluN2B WT [17]; mutant IC50 / wildtype IC50, GluN1-1a F113S): 0.8 | IC50 (GluN1-1a S132A/GluN2B WT [18]): 387 ± 57 nM | p (slope) (GluN1-1a WT/GluN2B F176Y [19]; GluN2B F176Y): 1.00 | A2, fixed-to-wildtype (*) (GluN1-1a WT/GluN2B F176Y [19]; GluN2B F176Y, maximum inhibition fixed to wildtype value): 97% | IC50 shift factor (GluN1-1a WT/GluN2B F176Y [19]; mutant IC50 / wildtype IC50, GluN2B F176Y): 0.9 | IC50 (GluN1-1a L135N/GluN2B WT [20]): 835 ± 184 nM | IC50 (GluN1-1a WT/GluN2B F114A [21]): 667 ± 90 nM | IC50 (GluN1-1a WT/GluN2B E236A [22]): 108 ± 16 nM | IC50 (GluN1-1a WT/GluN2B F176Y [23]): 84 ± 9 nM

Oc1ccc2c(c1)CCN(CCCCc1ccccc1)CC2O (racemic) [compound rac-1]
competition with the employed radioligands [24]: did not compete | IC50 ([10]; TEVC, holding potential −70 mV, 10 µM glycine and 10 µM (S)-glutamate, wildtype, read-out: IC50 ± SE): 94 ± 8 nM | p (slope of the dose-response curve) ([10]; TEVC, wildtype): 1.25 | A2 ± SE (maximum inhibition from dose-response curve) ([10]; TEVC, wildtype): 93 ± 2%
